According to PubChem BioAssay (NCI):
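Briefly, cells in 96-well plates were exposed to five compound concentrations for 48 h, and endpoints were estimated by linear interpolation. At the TGI there is no net growth.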

Key:
Assay in all cases: NCI tumour cell line growth inhibition, 48 h
RPMI-8226 leukemia = tested on: RPMI-8226 leukemia
UACC-257 melanoma = tested on: UACC-257 melanoma
HL-60(TB) leukemia = tested on: HL-60(TB) leukemia
786-0 renal = tested on: 786-0 renal
SK-MEL-2 melanoma = tested on: SK-MEL-2 melanoma
SF-295 CNS = tested on: SF-295 CNS
EKVX NSCLC = tested on: EKVX NSCLC
MCF7 breast = tested on: MCF7 breast
OVCAR-3 ovarian = tested on: OVCAR-3 ovarian
HT29 colon = tested on: HT29 colon

Structure (SMILES)	TGI (RPMI-8226 leukemia) [µM]	TGI (UACC-257 melanoma) [µM]	TGI (HL-60(TB) leukemia) [µM]	TGI (786-0 renal) [µM]	TGI (SK-MEL-2 melanoma) [µM]	TGI (SF-295 CNS) [µM]	TGI (EKVX NSCLC) [µM]	TGI (MCF7 breast) [µM]	TGI (OVCAR-3 ovarian) [µM]	TGI (HT29 colon) [µM]
Cn1c(=O)n2n(c1=O)Cc1cccc3cccc(c13)C2	> 100	> 100	4.18	> 100	> 100	> 100	> 100	> 100	> 100	> 100
S=C(NNC1=NCCCN1)Nc1ccccc1	79	> 100	> 100	> 100	> 100	> 100	> 100	> 100	> 100	> 100
Cc1c2c(c(C)n1-c1ccccc1)C(=O)N(CCSC(=N)N)C2=O	> 100	> 100	> 100	> 100	> 100	> 100	> 100	> 100	> 100	> 100
COC(=O)C1Cc2ccc(C)cc2C1=O (stereo not given)	> 100	> 100	> 100	> 100	> 100	> 100	> 100	> 100	> 100	> 100
CSC(SC)=C1C(=O)NN=C1C	> 100	> 100	> 100	> 100	> 100	> 100	> 100	> 100	> 100	> 100
CC(CC(=O)CO[C@H]1[C@H](O)[C@@H](O)[C@@H](O)[C@@H]2NC(=O)c3c(cc4c(c3O)OCO4)[C@H]21)OC1OC(CO)C(O)C(O)C1O (stereo not given in full)	2.07	6.19	2.45	2.92	0.859	5.65	3.46	1.47	2.65	2.32
CCCCCCCCCCCCCCCC(=O)ON1C(=S)NC(C)(c2ccccc2)C1=S (stereo not given)	> 100	> 100	> 100	> 100	> 100	> 100	> 100	> 100	> 100	> 100
CC(=O)OC1/C(=C/c2ccc([N+](=O)[O-])cc2)C[C@H]2[C@@H]3CC=C4C[C@@H](OC(C)=O)CC[C@]4(C)[C@H]3CC[C@]12C (stereo not given in full)	> 100	> 100	13.3	> 100	> 100	> 100	> 100	> 100	> 100	> 100
CCOC(=O)C1(Cc2ccccc2)Cc2cc3c(cc2C1)CCC3	51.7	> 100	76.9	> 100	34.3	85.8	> 100	53	> 100	46.2
COC(=O)C1Cc2c([nH]c3ccccc23)C(c2cccc(O)c2)N1 (stereo not given)	87.3	> 100	48.2	> 100	83.3	> 100	> 100	> 100	> 100	83.4
O/N=c1/ccn(O)c2ccccc12	0.542	21	8.8	10.3	3.64	2.9	11.2	7.49	6.59	4.24
Cc1cc2nc(N3C(=O)/C(=C/c4cccc([N+](=O)[O-])c4)N=C3c3ccccc3)sc2cc1C	48.1	> 100	54.5	> 100	60	> 100	94.3	43.9	> 100	75.9
O=C1/C(=C\c2ccc([N+](=O)[O-])cc2)Sc2scc(-c3ccc(O)c(O)c3)[n+]21	15.2	22.6	8.93	22.5	29.3	31.8	31.6	15.3	9.79	15.7
COc1c(Cl)ccc(Cl)c1C(=O)NNC(=O)c1c(Cl)c(Cl)c(Cl)c(Cl)c1-c1nc2ccc(C(=O)c3ccccc3)cc2[nH]1	90.8	> 100	> 100	> 100	> 100	> 100	> 100	> 100	> 100	> 100
CCOC(=O)c1cccc(NC(=O)CBr)c1	3.74	3.86	3.58	0.494	3.2	14.6	3.47	3.3	3.34	3.32
CC(=O)Oc1ccc(N2C(=O)C3c4[nH]c5ccccc5c4C4CCC(C(C)(C)C)CC4C3C2=O)cc1 (stereo not given)	> 100	24	5.47	4.31	17.8	14.8	9.41	13.7	7.07	9.38
CC(=O)N1c2ccccc2C(C)(C)OC1C(Cl)(Cl)Cl (stereo not given)	33.6	84.3	36.7	> 100	> 100	> 100	> 100	94.5	> 100	> 100
Cc1cccc(/C=N/NC(=S)NCc2ccccn2)n1	> 100	> 100	> 100	> 100	> 100	> 100	> 100	> 100	> 100	> 100

Structure (SMILES)	TGI (RPMI-8226 leukemia) [µM]	TGI (UACC-257 melanoma) [µM]	TGI (HL-60(TB) leukemia) [µM]	TGI (786-0 renal) [µM]	TGI (SK-MEL-2 melanoma) [µM]	TGI (SF-295 CNS) [µM]	TGI (EKVX NSCLC) [µM]	TGI (MCF7 breast) [µM]	TGI (OVCAR-3 ovarian) [µM]	TGI (HT29 colon) [µM]
CC(=O)OCCC1c2ccccc2-n2nc(-c3ccccc3)c(O)c21 (stereo not given)	33.7	32.5	38.4	38.4	96.6	45	36	22.9	49.3	42.4
COc1cc([C@@H]2c3cc4c(cc3[C@H](OC3OC5COC(C(C)C)OC5C(O)C3O)C3COC(=O)[C@@H]32)OCO4)cc(OC)c1O (stereo not given in full)	42.5	22.3	> 100	22.1	31.5	21.7	47.5	16	24.4	11.1
O=C(CCCN1CCC2(CC1)C(=O)NC(=O)N2c1ccccc1)c1ccc(F)cc1	> 100	> 100	> 100	> 100	> 100	> 100	> 100	> 100	> 100	> 100
Cc1cc(C)c(S(=O)(=O)N[C@@H](/C=C(\Br)CO)C(C)C)c(C)c1	54.5	54.6	40.3	> 100	33.7	> 100	> 100	59.4	51.8	> 100
O=C1NCC2(CCNCC2)N1c1ccccc1	> 100	> 100	> 100	> 100	> 100	> 100	> 100	> 100	> 100	> 100
Cc1ccc(/C=C2\N=C(N3CCCCC3)NC2=O)cc1	> 100	> 100	> 100	> 100	> 100	> 100	> 100	> 100	> 100	> 100
Cc1cc(S(N)(=O)=O)c(SCc2nc(N)nc(N(C)C)n2)cc1Cl	> 10	> 10	> 10	> 10	> 10	> 10	> 10	> 10	> 10	> 10
O=C(O)CCC(NC(=O)c1ccc(Nc2nc3ccccc3nc2C(=O)O)cc1)C(=O)O (stereo not given)	> 100	> 100	> 100	> 100	> 100	> 100	> 100	> 100	> 100	> 100
Cc1nc(-c2ccccc2)c(C)n2c1nc1ccccc12	40.6	> 100	44.4	> 100	45.9	> 100	> 100	86.1	54.8	> 100
O=C(O)c1cccc(S(=O)(=O)NN2C(=O)CSC2c2ccccc2)c1 (stereo not given)	> 100	> 100	> 100	> 100	> 100	> 100	> 100	> 100	> 100	> 100
CC(NC1=CC(=O)c2ncccc2C1=O)C(O)c1ccccc1 (stereo not given)	53.9	10.6	16.5	26.2	17.9	14.9	29.5	7.56	16.3	28.3
COc1cc(N(CCC#N)CCC#N)ccc1/C(N=Nc1ccc(C)cc1)=N/NC(=O)c1cc(Br)ccc1O	> 100	83.8	40.9	> 100	96.5	> 100	66.7	> 100	67.3	> 100
CC(=O)OCC1OC(Nc2ccc3nc(C)n(-c4cccc(C)c4)c(=O)c3c2)C(OC(C)=O)C(OC(C)=O)C1OC(C)=O (stereo not given)	> 62.5	> 62.5	> 62.5	> 62.5	> 62.5	> 62.5	> 62.5	> 62.5	> 62.5	> 62.5
CSCCC(NCc1c(O)ccc2ccc(=O)oc12)C(=O)O (stereo not given)	> 100	> 100	> 100	> 100	> 100	> 100	> 100	> 100	> 100	> 100
CC(O)c1c2c(cc3c1CC1(C3)Cc3cc4c(c(C(C)O)c3C1)CCC4)CCC2 (stereo not given)	38.5	31.7	21.2	28.9	43.3	45.2	96.2	59.5	29.4	28.3
O=C1C(C(O)(C(F)(F)Cl)C(F)(F)Cl)CCC1C(O)(C(F)(F)Cl)C(F)(F)Cl (stereo not given)	> 10	> 10	> 10	> 10	5.72	5.99	> 10	> 10	> 10	> 10
CCOC(=O)N1CCN(Cc2cc(=O)n3cc(C)ccc3n2)CC1	> 100	> 100	> 100	> 100	> 100	> 100	> 100	> 100	> 100	> 100
